# Test system: 648629-189-R-J1-PDC spheroids with HUVEC/MSC, viability
# Experiment: Anticancer human tumor 648629-189-R-J1-PDC patient-derived bladder carcinoma cell line growth inhibition [PI3K]
# Details: for IC50: curve of first compound; for viability, T/C: stronger effect = lower value
# From the text: Combinatorial screen of targeted agents with the PI3K inhibitors inavolisib, alpelisib, duvelisib, and copanlisib in multi-cell type tumor spheroids
# A high-throughput screen of multi-cell type tumor spheroids was designed to identify active combinations of targeted small molecules and PI3K pathway inhibitors. Complex spheroids include a stromal component modeled by human endothelial cells (HUVEC) and fibroblasts modeled by human mesenchymal stem cells (MSCs). The concentration ranges selected for each drug and investigational agent were based upon clinically achievable concentrations if the clinical Cmax of the agent was known.
# Compounds. The drugs and investigational agents: inavolisib (NSC800729), alpelisib (NSC765974), duvelisib (NSC772469), copanlisib (NSC816437), ipatasertib (NSC767898), afuresertib (NSC778305), talazoparib (NSC767125), sapanisertib (NSC764658), selumetinib (NSC741078), tovorafenib (DAY101, NSC766906), vemurafenib (NSC761431), ravoxertinib (NSC781343), sotorasib (NSC818433), MRTX1133 (NSC 836407), abemaciclib (NSC 768073), palbociclib (NSC758247), venetoclax (NSC 766270), SY5609 (NSC837396), enzalutamide (NSC755605), and darolutamide (NSC825331), were obtained from the National Cancer Institute (NCI) Developmental Therapeutics Program Chemical Repository. The FDA-approved anticancer drug set is available from the NCI Developmental Therapeutics Program. […] The stock solutions were prepared in dimethyl sulfoxide (DMSO, Sigma-Aldrich, St. Louis, MO, cat. D2650) at 800-fold the tested concentration and stored at -70 degrees C prior to their use. All drugs and investigational agents were tested over a range starting from a high concentration at or near the clinical Cmax and decreasing in half-log increments. If the clinical Cmax for an agent had not been determined, the highest concentration tested was 10 microM.
# Cell Culture. All cells were maintained in an incubator at 37 degrees C and 5% CO2 with 95% humidity. The PDC lines were cultured according to standard operating procedures established by the NCI PDMR (https://pdmr.cancer.gov/sops/default.htm). All PDCs were thawed and cultured in Matrigel-coated flasks prepared with a working solution of 1X Ham's F-12 nutrient mix, without supplementation (Invitrogen, Waltham, MA, cat. 11765054), 100 U/mL penicillin-streptomycin (Invitrogen, cat. 15140122), and 2.5% Matrigel (Corning Inc., Corning, NY, cat. 354248) for the first three passages. The 354836-022-R-J1-PDC, 475296-252-R-J1-PDC, and 997726-040-R-J2-PDC lines were cultured in 6A media, which includes advanced DMEM/F-12 (Thermo Fisher Scientific, cat. 12634028), 10 mM HEPES (Thermo Fisher Scientific, cat. 15630080), 1X GlutaMAX supplement (Thermo Fisher Scientific, cat. 35050061), 0.1 mg/mL primocin (InvivoGen, San Diego, CA, cat. ant-pm-2), 10% defined fetal bovine serum, heat inactivated (HyClone Laboratories Inc., Logan, UT, cat. SH30070.03HI), 50% L-WRN conditioned media (ATCC, cat. CRL-3276), 1.25 mM N-Acetyl-L-cysteine (Sigma-Aldrich, cat. A9165), 10 mM nicotinamide (Sigma-Aldrich, cat. N0636), 1X B-27 supplement (Thermo Fisher Scientific, cat. 17504044), 1X N-2 supplement (Thermo Fisher Scientific, cat. 17502048), and 10 microM Y-27632 dihydrochloride (Tocris Bioscience, Bristol, United Kingdom, cat. 1254). The 624824-186-R-J2-PDC line was cultured in 6C/Colon 1B media, which includes all 6A media components plus 50 ng/mL human EGF recombinant protein (Thermo Fisher Scientific, cat. PHG0311). […]
# [1] = second compound 0.0316 µM, first compound 0.0316 µM
# [2] = second compound 0.0316 µM, first compound 0.1 µM
# [3] = second compound 0.0316 µM, first compound 0.316 µM
# [4] = second compound 0.0316 µM, first compound 1 µM
# [5] = second compound 0.1 µM, first compound 0.0316 µM
# [6] = second compound 0.1 µM, first compound 0.1 µM
# [7] = second compound 0.1 µM, first compound 0.316 µM
# [8] = second compound 0.1 µM, first compound 1 µM
# [9] = second compound 0.316 µM, first compound 0.0316 µM
# [10] = second compound 0.316 µM, first compound 0.1 µM
# [11] = second compound 0.316 µM, first compound 0.316 µM
# [12] = second compound 0.316 µM, first compound 1 µM
# [13] = second compound 1 µM, first compound 0.0316 µM
# [14] = second compound 1 µM, first compound 0.1 µM
# [15] = second compound 1 µM, first compound 0.316 µM
# [16] = second compound 1 µM, first compound 1 µM
# [17] = second compound 3.16 µM, first compound 0.0316 µM
# [18] = second compound 3.16 µM, first compound 0.1 µM
# [19] = second compound 3.16 µM, first compound 0.316 µM
# [20] = second compound 3.16 µM, first compound 1 µM
# [21] = second compound 10 µM, first compound 0.0316 µM
# [22] = second compound 10 µM, first compound 0.1 µM
# [23] = second compound 10 µM, first compound 0.316 µM
# [24] = second compound 10 µM, first compound 1 µM
# [25] = second compound 0.0316 µM, first compound 3.16 µM
# [26] = second compound 0.0316 µM, first compound 10 µM
# [27] = second compound 0.1 µM, first compound 3.16 µM
# [28] = second compound 0.1 µM, first compound 10 µM
# [29] = second compound 0.316 µM, first compound 3.16 µM
# [30] = second compound 0.316 µM, first compound 10 µM
# [31] = second compound 1 µM, first compound 3.16 µM
# [32] = second compound 1 µM, first compound 10 µM
# 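Also: spheroids exposed to agents for seven days before reading.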
# 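For viability, T/C in this document: percent of vehicle control luminescence where 100% = DMSO treated spheroids.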
structure (smiles),measurement,setting,value
CCN1CCN(Cc2ccc(Nc3ncc(F)c(-c4cc(F)c5nc(C)n(C(C)C)c5c4)n3)nc2)CC1 + Cc1nc(NC(=O)N2CCCC2C(N)=O)sc1-c1ccnc(C(C)(C)C(F)(F)F)c1,IC50,second compound 0.0316 µM,> 1000 nM
same,IC50,second compound 0.1 µM,> 1000 nM
same,IC50,second compound 0.316 µM,> 1000 nM
same,IC50,second compound 1 µM,> 1000 nM
same,IC50,second compound 3.16 µM,> 1000 nM
same,IC50,second compound 10 µM,< 3.16 nM
same,"viability, T/C","second compound 0.0316 µM, first compound 0.00316 µM",96.4%
same,"viability, T/C","second compound 0.0316 µM, first compound 0.01 µM",107%
same,"viability, T/C",[1],104%
same,"viability, T/C",[2],99.2%
same,"viability, T/C",[3],119%
same,"viability, T/C",[4],120%
same,"viability, T/C","second compound 0.1 µM, first compound 0.00316 µM",101%
same,"viability, T/C","second compound 0.1 µM, first compound 0.01 µM",103%
same,"viability, T/C",[5],101%
same,"viability, T/C",[6],114%
same,"viability, T/C",[7],100%
same,"viability, T/C",[8],109%
same,"viability, T/C","second compound 0.316 µM, first compound 0.00316 µM",88.8%
same,"viability, T/C","second compound 0.316 µM, first compound 0.01 µM",93.7%
same,"viability, T/C",[9],90%
same,"viability, T/C",[10],91.6%
same,"viability, T/C",[11],96.9%
same,"viability, T/C",[12],101%
same,"viability, T/C","second compound 1 µM, first compound 0.00316 µM",78.2%
same,"viability, T/C","second compound 1 µM, first compound 0.01 µM",75.5%
same,"viability, T/C",[13],73%
same,"viability, T/C",[14],80.4%
same,"viability, T/C",[15],83.6%
same,"viability, T/C",[16],83.1%
same,"viability, T/C","second compound 3.16 µM, first compound 0.00316 µM",49.9%
same,"viability, T/C","second compound 3.16 µM, first compound 0.01 µM",57.7%
same,"viability, T/C",[17],53.8%
same,"viability, T/C",[18],59.3%
same,"viability, T/C",[19],64.7%
same,"viability, T/C",[20],69.8%
same,"viability, T/C","second compound 10 µM, first compound 0.00316 µM",41.9%
same,"viability, T/C","second compound 10 µM, first compound 0.01 µM",38.8%
same,"viability, T/C",[21],40.7%
same,"viability, T/C",[22],41.5%
same,"viability, T/C",[23],43.5%
same,"viability, T/C",[24],41.6%
Cn1ncc(Cl)c1-c1cc(C(=O)NC(CN)Cc2cccc(F)c2)sc1Cl (stereo unspecified) + CC(Nc1ncnc2nc[nH]c12)c1cc2cccc(Cl)c2c(=O)n1-c1ccccc1,IC50,second compound 0.0316 µM,991 nM
same,IC50,second compound 0.1 µM,769 nM
same,IC50,second compound 0.316 µM,708 nM
same,IC50,second compound 1 µM,709 nM
same,IC50,second compound 3.16 µM,646 nM
same,IC50,second compound 10 µM,479 nM
same,"viability, T/C",[1],129%
same,"viability, T/C",[2],90.4%
same,"viability, T/C",[3],68.3%
same,"viability, T/C",[4],45.8%
same,"viability, T/C",[25],26.5%
same,"viability, T/C",[26],10.4%
same,"viability, T/C",[5],97.8%
same,"viability, T/C",[6],87.2%
same,"viability, T/C",[7],71.8%
same,"viability, T/C",[8],39.9%
same,"viability, T/C",[27],27.5%
same,"viability, T/C",[28],9.37%
same,"viability, T/C",[9],93.9%
same,"viability, T/C",[10],103%
same,"viability, T/C",[11],62.8%
same,"viability, T/C",[12],42.6%
same,"viability, T/C",[29],23.8%
same,"viability, T/C",[30],7.95%
same,"viability, T/C",[13],108%
same,"viability, T/C",[14],92.2%
same,"viability, T/C",[15],62.2%
same,"viability, T/C",[16],42.9%
same,"viability, T/C",[31],27.2%
same,"viability, T/C",[32],8.92%
same,"viability, T/C",[17],97.7%
same,"viability, T/C",[18],93.8%
same,"viability, T/C",[19],64.8%
same,"viability, T/C",[20],36.7%
same,"viability, T/C","second compound 3.16 µM, first compound 3.16 µM",26.5%
same,"viability, T/C","second compound 3.16 µM, first compound 10 µM",7.12%
same,"viability, T/C",[21],99.7%
same,"viability, T/C",[22],78.2%
same,"viability, T/C",[23],56.9%
same,"viability, T/C",[24],37.2%
same,"viability, T/C","second compound 10 µM, first compound 3.16 µM",21.3%
same,"viability, T/C","second compound 10 µM, first compound 10 µM",6.29%
C[C@@H](NC(=O)c1ncnc(N)c1Cl)c1ncc(C(=O)Nc2cc(C(F)(F)F)c(Cl)cn2)s1 + CC(Nc1ccc2c(c1)OCCn1cc(N3C(=O)OCC3C(F)F)nc1-2)C(N)=O,IC50,second compound 0.00316 µM,> 10000 nM
same,IC50,second compound 0.01 µM,> 10000 nM
same,IC50,second compound 0.0316 µM,> 10000 nM
same,IC50,second compound 0.1 µM,> 10000 nM
same,IC50,second compound 0.316 µM,> 10000 nM
same,IC50,second compound 1 µM,> 10000 nM
same,"viability, T/C","second compound 0.00316 µM, first compound 0.0316 µM",106%
same,"viability, T/C","second compound 0.00316 µM, first compound 0.1 µM",99.1%
same,"viability, T/C","second compound 0.00316 µM, first compound 0.316 µM",112%
same,"viability, T/C","second compound 0.00316 µM, first compound 1 µM",115%
same,"viability, T/C","second compound 0.00316 µM, first compound 3.16 µM",108%
same,"viability, T/C","second compound 0.00316 µM, first compound 10 µM",116%
same,"viability, T/C","second compound 0.01 µM, first compound 0.0316 µM",111%
same,"viability, T/C","second compound 0.01 µM, first compound 0.1 µM",98.8%
same,"viability, T/C","second compound 0.01 µM, first compound 0.316 µM",115%
same,"viability, T/C","second compound 0.01 µM, first compound 1 µM",99.3%
same,"viability, T/C","second compound 0.01 µM, first compound 3.16 µM",112%
same,"viability, T/C","second compound 0.01 µM, first compound 10 µM",101%
same,"viability, T/C",[1],109%
same,"viability, T/C",[2],105%
same,"viability, T/C",[3],97.4%
same,"viability, T/C",[4],102%
same,"viability, T/C",[25],106%
same,"viability, T/C",[26],106%
same,"viability, T/C",[5],103%
same,"viability, T/C",[6],97.8%
same,"viability, T/C",[7],105%
same,"viability, T/C",[8],110%
same,"viability, T/C",[27],98.3%
same,"viability, T/C",[28],97.8%
same,"viability, T/C",[9],94.8%
same,"viability, T/C",[10],93.9%
same,"viability, T/C",[11],83.7%
same,"viability, T/C",[12],86.2%
same,"viability, T/C",[29],96.2%
same,"viability, T/C",[30],86.4%
same,"viability, T/C",[13],76.2%
same,"viability, T/C",[14],74.2%
same,"viability, T/C",[15],69.3%
same,"viability, T/C",[16],77.2%
same,"viability, T/C",[31],78%
same,"viability, T/C",[32],65.5%
